No end group written: not given here.
How the values were obtained:
Na/K-ATPase α1 = target: T1, Na/K-ATPase α1 (Sus scrofa, UniProt P05024); assay: tyrosine 260 phosphorylation of Na/K-ATPase, Western blot; format: cell-based; settings: LLC-PK1 cells, 100 nM ouabain, FIG. 4C
T1 construct: in normal LLC-PK1 cells, tyrosine 260 of full length Na/K-ATPase was phosphorylated; endogenous in cells; host or cells: LLC-PK1
Procedure: FIGS. 4A-4C include a schematic diagram and images relating to the phosphorylation of Y260 in CD2, FIG. 4A is a schematic diagram showing CD2 sequence from Na/K-ATPase α1 subunit with the tentative Src SH2 domain binding region surrounding Y260 marked in a box (SEQ ID NO: 10). FIG. 4B is an image showing the results of an experiment where five hundred μg of total cell lysate was immunoprecipitated with 10 μg anti-Src antibody and immunoprecipitates were subjected to Western blot analysis of tyrosine 260 phosphorylation using an anti-phosphotyrosine 260 Na/K-ATPase α1 antibody, and where the same membrane was stripped and probed for YFP. FIG. 4C includes images showing the results of an experiment where LLC-PK1 cells were grown up to 100% confluence and then serum starved overnight and treated with 100 nM ouabain for the indicated times and then western blotted by probing for pY260 α1 Na/K-ATPase and a 1 Na/K-ATPase, […] Src and total Src.
In view of the foregoing findings, experiments were then undertaken to develop a highly specific peptide antagonist for disrupting the CD2/SH2 interaction in order to inhibit the cardiotonic steroid-mediated signaling, in cells. […] As depicted in FIG. 4B, CD2 was capable of being phosphorylated when it was expressed in cells.

[1] = reconstituted in vitro system; previously demonstrated (PCT/US2011/021130); cited from earlier work

| Compound | phosphorylation of tyrosine 260 of full length Na/K-ATPase (Na/K-ATPase α1) | ouabain antagonism [1] |
| --- | --- | --- |
| C[C@@H]1O[C@@H](O[C@H]2C[C@@H](O)[C@]3(CO)[C@H]4[C@H](O)C[C@]5(C)[C@@H](C6=CC(=O)OC6)CC[C@]5(O)[C@@H]4CC[C@]3(O)C2)[C@H](O)[C@H](O)[C@H]1O [ouabain] | increased the phosphorylation in a time-dependent manner | – |
| CD2C2: peptide derived from CD2, non-phosphorylated; SEQ ID NO: 1 in PCT/US2011/021130 (STNCVEGTARGIVVYTGD; not fully specified (residue 15); listed as Homo sapiens) | – | effective ouabain antagonist |
